Where “and” joins values, the source holds several entries; their conditions need not be identical. Equal entries are not always repeated. Structures can show the parent of a compound that is named as a salt.
Tests used:
isolated rat aorta = assay: Calcium inhibitory properties: contractile response to potassium-induced depolarization on isolated rat aorta; parameters: species or system isolated organ, male Wistar rats; conditions: for activity at 0.001 µM: 10^-9 M; for activity at 1 µM: 10^-6 M; for % of the maximum contractional effect: 60 min
Procedure, shortened: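 Contraction is expressed as % of the pre-incubation maximum, measured after a 60 min compound exposure and a fresh K+ (100 mM KCl) depolarization. Tissue: aortic strips from male Wistar rats, 2 g tension, modified Krebs-bicarbonate, 37° C, CO2/O2 gassed.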

[1] = system: epinephrine-induced increase in blood-pressure (anti-α effect); assay: Antiadrenergic properties: anti-α effect (reduction of epinephrine-induced hypertension); type: in vivo; parameters: key to anti-α effect: +: for a reduction < 50%; ++: for a reduction ≥ 50%; +++: for a reduction sub-total (almost complete reduction); conditions: dog; for inhibition in vivo at 10 mg/kg: 10 mg/kg i.v., known compounds
Protocol: (§1) The object of this test is to determine the capacity of the compounds of the invention for reducing the increase in epinephrine-induced increase in blood-pressure (anti-α effect) and the isoprenaline-induced acceleration in heart rate (anti-β effect), in dogs previously anaesthatized with pentobarbital and atropinized. For each dog, the dose of epinephrine (between 3 and 10 μg/kg) which induced a reproducible increase in the blood-pressure of approximately 133×10^2 Pa and the dose of isoprenaline (1 to 2 μg/kg) which induced a reproducible increase in the heart rate of approximately 70 beats/min. were first determined. The dose of epinephrine and of isoprenaline, determined in this manner, were injected alternately every ten minutes and, after two successive reference responses had been obtained, an amount of the test compound was administered intravenously. The percentage reduction in the hypertension induced by the test compound compared with the reference hypertension previously obtained (approximately 100 mm Hg) was recorded. In both cases, the results of the reduction in blood-pressure or in the heart rate have been expressed as follows: […]

[2] = system: isoprenaline-induced acceleration in heart rate (anti-β effect); assay: Antiadrenergic properties: anti-β effect (reduction of isoprenaline-induced tachycardia); type: in vivo; parameters: key to anti-β effect: +: for a reduction < 50%; ++: for a reduction ≥ 50%; +++: for a reduction sub-total (almost complete reduction); conditions: dog; for inhibition in vivo at 10 mg/kg: 10 mg/kg i.v., known compounds; for inhibition in vivo at 1.3 mg/kg: 1.3 mg/kg i.v.
Protocol: as §1, with “the acceleration of the heart rate” for “the hypertension”, “reference tachycardia measured” for “reference hypertension”, “previously” for “previously obtained”, “(approximately 70 beats)” for “(approximately 100 mm Hg)”

[3] = Rattus norvegicus, 1 h, 10^-7 M, read-out: % of the maximum contractional effect
[4] = Rattus norvegicus, 1 h, 10^-8 M, read-out: % of the maximum contractional effect
[5] = Rattus norvegicus, 1 h, read-out: % of the maximum contractional effect
[6] = Canis lupus familiaris, iv, 0.1 mg/kg i.v.
[7] = Canis lupus familiaris, iv, 5 mg/kg i.v.
[8] = Canis lupus familiaris, iv, 0.5 mg/kg i.v.
[9] = Canis lupus familiaris, iv, 0.027 mg/kg i.v.

Compound | activity at 0.1 µM (isolated rat aorta; [3]) [%] | activity at 0.01 µM (isolated rat aorta; [4]) [%] | activity at 0.001 µM (isolated rat aorta; [5]) [%] | activity at 1 µM (isolated rat aorta; [5]) [%] | also measured
CCCCN(CCCOc1ccc(S(=O)(=O)c2c(C(C)C)cn3ccccc23)cc1)CCc1ccc(OC)c(OC)c1 [Ex. 45, 2-Isopropyl-1-[4-{3-[N-n-butyl-N-(3,4-dimethoxy-β-phenethyl)amino]propyloxy}benzenesulphonyl]indolizine acid oxalate] | 18.7 | 62.3 | 80.7 |  | inhibition in vivo at 0.1 mg/kg [1, 6]: ≥ 50%; inhibition in vivo at 0.1 mg/kg [2, 6]: ≥ 50%
CCCN(CCC)CCCOc1ccc(C(=O)c2c(CC)cn3ccccc23)cc1 [Compound E, reference compound] | 89.1 |  |  | 37.9 | inhibition in vivo at 10 mg/kg ([1]; Canis lupus familiaris, iv): < 50%; inhibition in vivo at 10 mg/kg ([2]; Canis lupus familiaris, iv): ≥ 50%
CCCCc1cn2ccccc2c1S(=O)(=O)c1ccc(OCCCNC(C)(C)C)cc1.O=C(O)C(=O)O [Ex. 29, 2-n-Butyl-1-{4-[3-(tert-butylamino)propyloxy]benzenesulphonyl}indolizine oxalate] |  |  |  | 30.7 | anti-α effect ([1]; 5 mg/kg i.v.): +++; inhibition in vivo at 5 mg/kg [2, 7]: ≥ 50%
CCCCN(CCCC)CC(O)COc1ccc(S(=O)(=O)c2c(C(C)C)cn3ccccc23)cc1.Cl (stereo not shown) [Ex. 49, 2-isopropyl-1-{4-[3-(di-n-butylamino)-2-hydroxypropyloxy]-benzenesulphonyl}indolizine hydrochloride] | 12.8 | 67.6 | 80.2 | 5.4 | anti-α effect ([1]; 1 mg/kg i.v.): +++; inhibition in vivo at 1 mg/kg ([2]; Canis lupus familiaris, iv, 1 mg/kg i.v.): ≥ 50%
COc1cccc(CCN(C)CCCOc2ccc(S(=O)(=O)c3c(C(C)C)cn4ccccc34)cc2)c1 [Ex. 46, 2-Isopropyl-1-[4-{3-[N-methyl-N-(3-methoxy-β-phenethyl)amino]propyloxy}benzenesulphonyl]indolizine acid oxalate] | 4.3 | 49.5 | 78.1 |  | anti-α effect ([1]; 0.1 mg/kg i.v.): +++; anti-β effect ([2]; 0.1 mg/kg i.v.): +++
COc1ccc(CCN(C)CCCOc2ccc(S(=O)(=O)c3cc4ccccc4nc3C(C)C)cc2)cc1OC [Ex. 75, 2-isopropyl-3-[4-{3-[N-methyl-N-(3,4-dimethoxy-β-phenethyl)amino]propyloxy}benzenesulphonyl]quinoline oxalate] |  | 89.7 |  |  | % of the maximum contractional effect (isolated rat aorta; 10^-7 M, 0.1 µM): 54% and 79.6%; anti-α effect ([1]; 1.3 mg/kg i.v.): +++; inhibition in vivo at 1.3 mg/kg ([2]; Canis lupus familiaris, iv): < 50%
CCCCN(CCCC)CCCOc1ccc(Sc2c(C(C)C)cn3ccccc23)cc1.O=C(O)C(=O)O [Ex. 52, 1-{4-[3-(di-n-butylamino)propyloxy]phenylthio}-2-isopropylindolizine oxalate] |  |  |  | 81.2 | activity at 10 µM (isolated rat aorta; Rattus norvegicus, 1 h, 10^-5 M, read-out: % of the maximum contractional effect): 69.2%; anti-α effect ([1]; 5.4 mg/kg i.v.): +++; inhibition in vivo at 5.4 mg/kg ([2]; Canis lupus familiaris, iv, 5.4 mg/kg i.v.): ≥ 50%
CCCCN(CCCC)CCCCOc1ccc(S(=O)(=O)c2c(CC)cn3ccccc23)cc1 [Ex. 23, 2-Ethyl-1-{4-[4-(di-n-butylamino)butyloxy]benzenesulphonyl}indolizine hemioxalate] | 24.1 | 77.8 |  |  | anti-α effect ([1]; 1 mg/kg i.v.): +++; anti-β effect ([2]; 1 mg/kg i.v.): +++
COc1cc(CCN(C)CCCOc2ccc(S(=O)(=O)c3c(C(C)C)cn4ccccc34)cc2)cc(OC)c1 [Ex. 145, 2-isopropyl-1[4-{3-[N-methyl-N-(3,5-dimethoxy-β-phenethyl)amino]propyloxy}benzenesulphonyl]indolizine acid oxalate] |  | 21 | 57.7 |  | activity at 0.0001 µM (isolated rat aorta; Rattus norvegicus, 1 h, 10^-10 M, read-out: % of the maximum contractional effect): 81%; anti-α effect ([1]; 0.033 mg/kg i.v.): +++; inhibition in vivo at 0.033 mg/kg ([2]; Canis lupus familiaris, iv, 0.033 mg/kg i.v.): ≥ 50%
CCCCc1cn2ccccc2c1S(=O)(=O)c1ccc(OCCCN(CCC)CCC)cc1.O=C(O)C(=O)O [Ex. 12, 2-n-Butyl-1-{4-[3-(di-n-propylamino)propyloxy]benzenesulphonyl}indolizine oxalate] |  |  |  | 36.3 | inhibition in vivo at 5 mg/kg [1, 7]: ≥ 50%; anti-β effect ([2]; 5 mg/kg i.v.): +++
CCCc1oc2ccccc2c1S(=O)(=O)c1ccc(OCCCN(C)CCc2ccc(OC)c(OC)c2)cc1 [Ex. 67, 2-n-Propyl-3-[4-{3-[N-methyl-N-(3,4-dimethoxy-β-phenethyl)amino]propyloxy}benzenesulphonyl]benzofuran oxalate] | 38.3 | 80.9 |  | 9.3 | anti-α effect ([1]; 1.3 mg/kg i.v.): +++; inhibition in vivo at 1.3 mg/kg ([2]; Canis lupus familiaris, iv): < 50%
COc1ccc(CCN(C)CCCOc2ccc(S(=O)(=O)c3c(C(C)C)oc4ccccc34)cc2)cc1OC [Ex. 66, 2-isopropyl-3-[4-{3-[N-methyl-N-(3,4-dimethoxy-β-phenethylamino]propyloxy}benzenesulphonylbenzofuran oxalate] | 19.7 | 60.4 | 81.7 | 2.6 | anti-α effect ([1]; 0.1 mg/kg i.v.): +++; inhibition in vivo at 0.1 mg/kg [2, 6]: < 50%
COc1ccc(CCN(C)CCCOc2ccc(S(=O)(=O)C3=C(C(C)C)OCC3)cc2)cc1OC [Ex. 73, 2-isopropyl-3-[4-{3-[N-methyl-N-(3,4-dimethoxy-β-phenethyl)amino]propyloxy}benzenesulphonyl]-4,5-dihydro-furan oxalate] | 66.7 | 78.3 |  | 8.2 | anti-α effect ([1]; 3 mg/kg i.v.): +++; inhibition in vivo at 3 mg/kg ([2]; Canis lupus familiaris, iv, 3 mg/kg i.v.): ≥ 50%
CCCCN(CCCC)CCCOc1ccc(S(=O)(=O)c2c(C(C)C)cn3ccccc23)cc1 [Ex. 1, 2-isopropyl-1-{4-[3-(di-n-butylamino)propyloxy]benzenesulphonyl}indolizineoxalate] | 18.9 | 61 |  | 2 | inhibition in vivo at 0.5 mg/kg [1, 8]: ≥ 50%; inhibition in vivo at 0.5 mg/kg [2, 8]: ≥ 50%
CCCCN(CCCC)CCCOc1ccc(S(=O)(=O)c2c(C3CCCCC3)cn3ccccc23)cc1 [Ex. 51, 2-Cyclohexyl-1-{4-[3-(di-n-butylamino)propyloxy]-benzenesulphonyl}indolizin] | 80.4 |  |  | 58.9 | anti-α effect ([1]; 5.2 mg/kg i.v.): +++; inhibition in vivo at 5.2 mg/kg ([2]; Canis lupus familiaris, iv, 5.2 mg/kg i.v.): ≥ 50%
CCCCNCCCOc1ccc(S(=O)(=O)c2c(CC)cn3ccccc23)cc1.O=C(O)C(=O)O [Ex. 21, 2-Ethyl-1-{4-[3-(n-butylamino)propyloxy]benzenesulphonyl}indolizine oxalate] | 74.7 |  |  | 8.3 | anti-α effect ([1]; 5 mg/kg i.v.): +++; anti-β effect ([2]; 5 mg/kg i.v.): +++
COc1cc(CCNCCCOc2ccc(S(=O)(=O)c3c(C(C)C)cn4ccccc34)cc2)cc(OC)c1 [Ex. 133, 1-[4-{3-[N-(3,5-dimethoxy-β-phenethyl)amino]propyloxy}benzenesulphonyl]-2-isopropyl-indolizine acid oxalate] | 6.2 | 30.5 | 73.4 |  | % of the maximum contractional effect (isolated rat aorta; 10^-8 M, 0.01 µM): 30.3%; inhibition in vivo at 0.027 mg/kg [1, 9]: ≥ 50%; inhibition in vivo at 0.027 mg/kg [2, 9]: < 50%
CCCCN(CCCC)CCCOc1c(C)cc(C(=O)c2c(CC)cn3ccccc23)cc1C [Compound D, reference compound] | 64.7 |  |  | 19.3 | inhibition in vivo at 10 mg/kg ([1]; Canis lupus familiaris, iv): < 50%; inhibition in vivo at 10 mg/kg ([2]; Canis lupus familiaris, iv): < 50%
